Results taken from patent US20240002388A1, “PYRIMIDINONE COMPOUNDS AND USES THEREOF” (HUTCHISON MEDIPHARMA LIMITED, priority 2020, published 2024).

test system: IL-1β production in human whole blood; test: TNF-α, Z-VAD-FMK and SM-164 induced IL-1β production in human whole blood; assay type: cell-based; details: Z-VAD-FMK and SM-164 stimulation, 6 hours, IL-1β ELISA
From the text: • Human blood samples were collected by venipuncture from healthy volunteers, with signed consent from each volunteer before blood collection; • RPMI 1640 medium: L-Glutamine, 1.5 g/L NaHCO3, 2.383 g/L HEPES solution, 0.11 g/L sodium pyruvate and 4.5 g/L Glucose; Gibco, catalog: A10491-01; • Dimethyl sulfoxide (DMSO): Sigma, catalog: D2650; • Recombinant Human TNF-alpha Protein (hTNF-α): R&D system, catalog: 210-TA-100; • Pan-Caspase inhibitor (Z-VAD-FMK): Selleckchem, catalog: S7023; • Smac Mimetic-164 (SM-164): APEXBIO, catalog: A8815; • Human IL-1 beta/IL-1F2 Quantikine ELISA Kit: R&D systems, catalog: SLB50; • Envision Multimode Microplate Reader: PerkinElmer; • 96-well clear flat bottom TC-treated culture microplate: Falcon, catalog: 353072; • 96-well Microplate (U bottom): Corning, catalog: 3799. 2. Assay Protocol Human whole blood was anti-coagulated with heparin and used in human whole blood assay immediately. Fresh heparinized human whole blood was diluted with an equal volume of RPMI 1640 medium, aliquoted the diluted blood into 96-well plate, 90 μL each well.
Compound preparation: dilute the compound stock using DMSO and perform 3-fold serial dilution to 8-points. Then transfer the diluted compounds to RPMI 1640 medium and mix.
Compound treatment and stimulation: transfer 5 μL of the diluted compound to appropriate wells of the plate. The final concentration of the compound was 1.0, 0.333, 0.111, 0.037, 0.012, 0.004, 0.0014 and 0.0005 μM, and each well contained 0.3% DMSO. For positive and negative control wells, add 5 μL of RPMI 1640 medium with 3% DMSO. And incubate the plate at 5% CO2, 37° C. for 1 hour.
Then 5 μL of the mixture of stimuli (TNF-α, Z-VAD-FMK and SM-164) was added with the final concentration of […] except negative control wells. The negative control wells were added same volume of RPMI 1640 medium.
After incubation 6 hours in a 37° C./5% CO2 incubator, each well was added with 100 μL of PBS, and centrifuged at 4000 rmp for 10 minutes. The 110 μL of supernatant per well was collected, and stored at −80° C. for ELISA.
Prepared 100 μL of IL-1β standards (in duplicate) in designated wells. ELISA was operated according to manufacturer's instruction. In the end, measured the ELISA plate absorbance at 450 nm/570 nm using Envision.
Inhibition rates of compounds on TNF-α, Z-VAD-FMK and SM-164 induced IL-1β Production in human whole blood were calculated as follows: • IL-1β level was calculated with IL-1β standard curve (standard curve fitting equation is four parameters logistic model)
[formula] • IL-1β levelstimulated: the concentration of IL-1β in the positive control wells which added TNF-α, Z-VAD-FMK, SM-164 and no compound; • IL-1β levelnon-stimulated: the concentration of IL-1β in the negative control wells without the treatment of TNF-α, Z-VAD-FMK, SM-164 and compound; • IL-1β levelcompound: the concentration of IL-1β in the wells with the treatment of TNF-α, Z-VAD-FMK, SM-164 and compound. • The IC50 value of compound is determined with XLFit 5 software (ID Business Solutions Limited).

SMILES	IC50 [nM]
CC(C)n1ncc2cnc(C(=O)NC3(c4ccc(-c5cncn(C6COC6)c5=O)cc4)CC3)nc21 [Compound 41]	18
CC(C)n1ncc2cnc(C(=O)NC3(c4ccc(-c5cncn(CC6CC6)c5=O)c(F)c4)CC3)nc21 [Compound 75]	11
CC(C)n1ncc2cnc(C(=O)NC3(c4ccc(-c5cncn(CC6CC6)c5=O)cc4F)CC3)nc21 [Compound 74]	13
CC(C)n1ncc2cnc(C(=O)NC3(c4ccc(-c5cncn([C@H](C)C6CC6)c5=O)cc4)CC3)nc21 [Compound 84, (R)—N-(1-(4-(1-(1-cyclopropylethyl)-6-oxo-1,6-dihydropyrimidin-5-yl)phenyl)cyclopropyl)-1-i-propyl-1H-pyrazolo[3,4-d]pyrimidine-6-carboxamide]	5
CC(C)n1cncc(-c2ccc(C3(NC(=O)c4ncc5cnn([C@H](C)C6CC6)c5n4)CC3)cc2)c1=O [Compound 89, (R)-1-(1-cyclopropylethyl)-N-(1-(4-(1-i-propyl-6-oxo-1,6-dihydropyrimidin-5-yl)phenyl)cyclopropyl)-1H-pyrazolo[3,4-d]pyrimidine-6-carboxamide]	18
CC(C)n1cncc(-c2ccc(C3(NC(=O)c4ncc5cnn(C6COC6)c5n4)CC3)cc2)c1=O [Compound 60]	10
CC(C)n1cncc(-c2ccc(C3(NC(=O)c4ncc5cnn(C(C)C6CC6)c5n4)CC3)cc2)c1=O (racemic) [Compound 59, 1-(1-cyclopropylethyl)-N-(1-(4-(1-i-propyl-6-oxo-1,6-dihydropyrimidin-5-yl)phenyl)cyclopropyl)-1H-pyrazolo[3,4-d]pyrimidine-6-carboxamide]	4
CC(C)n1cncc(-c2ccc(C3(NC(=O)c4ncc5cnn(C(C)C)c5n4)CC3)cc2)c1=O [Compound 29, 1-isopropyl-N-(1-(4-(1-isopropyl-6-oxo-1,6-dihydropyrimidin-5-yl)phenyl)cyclopropyl)-1H-pyrazolo[3,4-d]pyrimidine-6-carboxamide]	4
CC(C)n1ncc2cnc(C(=O)NC3(c4ccc(-c5cncn(CC6(C)CC6)c5=O)cc4)CC3)nc21 [Compound 86]	13
CC(C)n1ncc2cnc(C(=O)NC3(c4ccc(-c5cncn([C@H](C)C(F)(F)F)c5=O)cc4F)CC3)nc21 (stereo in doubt) [Compound 46]	6
CC(C)n1cncc(-c2ccc(C3(NC(=O)c4ncc5cnn([C@@H](C)C6CC6)c5n4)CC3)cc2)c1=O [Compound 90, (S)-1-(1-cyclopropylethyl)-N-(1-(4-(1-i-propyl-6-oxo-1,6-dihydropyrimidin-5-yl)phenyl)cyclopropyl)-1H-pyrazolo[3,4-d]pyrimidine-6-carboxamide]	7
CC(C)n1ncc2cnc(C(=O)NC3(c4ccc(-c5cncn([C@@H](C)C(F)(F)F)c5=O)cc4F)CC3)nc21 (stereo in doubt) [Compound 47]	9

Further lines, results first:

IC50 [nM]	SMILES
39	CC(C)n1cncc(-c2ccc(C3(NC(=O)c4ncc5cnn(CC6CC6)c5n4)CC3)c(F)c2)c1=O [Compound 72]
12	O=C(NC1(c2ccc(-c3cncn(CC4CC4)c3=O)cc2)CC1)c1ncc2cnn(CC3CC3)c2n1 [Compound 64]
9	C[C@@H](n1cncc(-c2ccc(C3(NC(=O)c4ncc5cnn(CC6CC6)c5n4)CC3)c(F)c2)c1=O)C(F)(F)F [Compound 76]
38	C[C@H](n1cncc(-c2ccc(C3(NC(=O)c4ncc5cnn(CC6CC6)c5n4)CC3)c(F)c2)c1=O)C(F)(F)F [Compound 71]
11	CC(C)n1cncc(-c2ccc(C3(NC(=O)c4ncc5cnn(CC6CC6)c5n4)CC3)cc2)c1=O [Compound 61]
8	C[C@@H](n1cncc(-c2ccc(C3(NC(=O)c4ncc5cnn(CC6CC6)c5n4)CC3)cc2)c1=O)C(F)(F)F [Compound 70]
21	CC(C)n1cncc(-c2ccc(C3(NC(=O)c4ncc5cnn(CC6CC6)c5n4)CC3)cc2F)c1=O [Compound 73]
4	CC(C)n1ncc2cnc(C(=O)NC3(c4ccc(-c5cncn(CC6CC6)c5=O)cc4)CC3)nc21 [Compound 36]
43	C[C@H](n1cncc(-c2ccc(C3(NC(=O)c4ncc5cnn(CC6CC6)c5n4)CC3)cc2)c1=O)C(F)(F)F [Compound 68]
5	CC(C)n1ncc2cnc(C(=O)NC3(c4ccc(-c5cncn([C@@H](C)C6CC6)c5=O)cc4)CC3)nc21 [Compound 85, (S)—N-(1-(4-(1-(1-cyclopropylethyl)-6-oxo-1,6-dihydropyrimidin-5-yl)phenyl)cyclopropyl)-1-i-propyl-1H-pyrazolo[3,4-d]pyrimidine-6-carboxamide]
